Assay results reported in ChEMBL document CHEMBL1671626, “In vitro profiling of ceftaroline against a collection of recent bacterial clinical isolates from across the United States” (2008).
≈ marks a conversion by molar mass, not a printed value.

Tests used:
Assay type in all cases: functional
Citrobacter freundii [1] = assay: Antibacterial activity against ceftazidime-nonsusceptible Citrobacter freundii by CLSI M7-A7 broth microdilution method
Morganella morganii [2] = assay: Antibacterial activity against ceftazidime-susceptible Morganella morganii by CLSI M7-A7 broth microdilution method
Proteus mirabilis [3] = assay: Antibacterial activity against ceftazidime-susceptible Proteus mirabilis by CLSI M7-A7 broth microdilution method
Serratia marcescens [4] = assay: Antibacterial activity against ceftazidime-susceptible Serratia marcescens assessed as susceptible isolates by CLSI M7-A7 broth microdilution method
Acinetobacter [5] = assay: Antibacterial activity against multidrug-resistant Acinetobacter by CLSI M7-A7 broth microdilution method
Enterobacteriaceae [6] = assay: Antibacterial activity against ceftazidime-nonsusceptible Enterobacteriaceae assessed as resistant isolates by CLSI M7-A7 broth microdilution method
Enterobacteriaceae [7] = assay: Antibacterial activity against ceftazidime-nonsusceptible Enterobacteriaceae by CLSI M7-A7 broth microdilution method
Enterobacter cloacae [8] = assay: Antibacterial activity against ceftazidime-susceptible Enterobacter cloacae assessed as resistant isolates by CLSI M7-A7 broth microdilution method
Citrobacter freundii [9] = assay: Antibacterial activity against ceftazidime-susceptible Citrobacter freundii by CLSI M7-A7 broth microdilution method
Enterobacter cloacae [10] = assay: Antibacterial activity against ceftazidime-nonsusceptible Enterobacter cloacae by CLSI M7-A7 broth microdilution method
Proteus mirabilis [11] = assay: Antibacterial activity against ceftazidime-susceptible Proteus mirabilis assessed as resistant isolates by CLSI M7-A7 broth microdilution method
Enterobacter cloacae [12] = assay: Antibacterial activity against ceftazidime-nonsusceptible Enterobacter cloacae assessed as resistant isolates by CLSI M7-A7 broth microdilution method
Enterobacteriaceae [13] = assay: Antibacterial activity against ceftazidime-susceptible Enterobacteriaceae by CLSI M7-A7 broth microdilution method
Haemophilus influenzae [14] = assay: Antibacterial activity against beta lactamase-negative Haemophilus influenzae assessed as susceptible isolates by CLSI M7-A7 broth microdilution method
Enterobacteriaceae [15] = assay: Antibacterial activity against ceftazidime-nonsusceptible Enterobacteriaceae assessed as susceptible isolates by CLSI M7-A7 broth microdilution method
Morganella morganii [16] = assay: Antibacterial activity against ceftazidime-susceptible Morganella morganii assessed as susceptible isolates by CLSI M7-A7 broth microdilution method
Enterobacter cloacae [17] = assay: Antibacterial activity against ceftazidime-susceptible Enterobacter cloacae by CLSI M7-A7 broth microdilution method
Escherichia coli [18] = assay: Antibacterial activity against ceftazidime-nonsusceptible Escherichia coli assessed as resistant isolates by CLSI M7-A7 broth microdilution method
Morganella morganii [19] = assay: Antibacterial activity against ceftazidime-susceptible Morganella morganii assessed as resistant isolates by CLSI M7-A7 broth microdilution method
Haemophilus influenzae [20] = assay: Antibacterial activity against beta lactamase-positive Haemophilus influenzae assessed as susceptible isolates by CLSI M7-A7 broth microdilution method
Escherichia coli [21] = assay: Antibacterial activity against ceftazidime-nonsusceptible Escherichia coli assessed as susceptible isolates by CLSI M7-A7 broth microdilution method
Klebsiella pneumoniae [22] = assay: Antibacterial activity against ceftazidime-susceptible Klebsiella pneumoniae assessed as susceptible isolates by CLSI M7-A7 broth microdilution method
Citrobacter freundii [23] = assay: Antibacterial activity against ceftazidime-susceptible Citrobacter freundii assessed as susceptible isolates by CLSI M7-A7 broth microdilution method
Serratia marcescens [24] = assay: Antibacterial activity against ceftazidime-susceptible Serratia marcescens assessed as resistant isolates by CLSI M7-A7 broth microdilution method
Klebsiella pneumoniae [25] = assay: Antibacterial activity against ceftazidime-susceptible Klebsiella pneumoniae assessed as resistant isolates by CLSI M7-A7 broth microdilution method
Enterobacter cloacae [26] = assay: Antibacterial activity against ceftazidime-nonsusceptible Enterobacter cloacae assessed as susceptible isolates by CLSI M7-A7 broth microdilution method
Haemophilus influenzae [27] = assay: Antibacterial activity against beta lactamase-positive Haemophilus influenzae by CLSI M7-A7 broth microdilution method
Escherichia coli [28] = assay: Antibacterial activity against ceftazidime-susceptible Escherichia coli assessed as resistant isolates by CLSI M7-A7 broth microdilution method
Providencia sp. [29] = assay: Antibacterial activity against ceftazidime-susceptible Providencia sp. by CLSI M7-A7 broth microdilution method
Klebsiella pneumoniae [30] = assay: Antibacterial activity against ceftazidime-nonsusceptible Klebsiella pneumoniae assessed as resistant isolates by CLSI M7-A7 broth microdilution method
Haemophilus influenzae [31] = assay: Antibacterial activity against beta lactamase-positive Haemophilus influenzae assessed as resistant isolates by CLSI M7-A7 broth microdilution method
Citrobacter freundii [32] = assay: Antibacterial activity against ceftazidime-susceptible Citrobacter freundii assessed as resistant isolates by CLSI M7-A7 broth microdilution method
Haemophilus influenzae [33] = assay: Antibacterial activity against beta lactamase-negative Haemophilus influenzae by CLSI M7-A7 broth microdilution method
Haemophilus influenzae [34] = assay: Antibacterial activity against beta lactamase-negative Haemophilus influenzae assessed as resistant isolates by CLSI M7-A7 broth microdilution method
Enterobacteriaceae [35] = assay: Antibacterial activity against ceftazidime-susceptible Enterobacteriaceae assessed as resistant isolates by CLSI M7-A7 broth microdilution method
Citrobacter freundii [36] = assay: Antibacterial activity against ceftazidime-nonsusceptible Citrobacter freundii assessed as resistant isolates by CLSI M7-A7 broth microdilution method
Proteus mirabilis [37] = assay: Antibacterial activity against ceftazidime-susceptible Proteus mirabilis assessed as susceptible isolates by CLSI M7-A7 broth microdilution method
Klebsiella pneumoniae [38] = assay: Antibacterial activity against ceftazidime-nonsusceptible Klebsiella pneumoniae by CLSI M7-A7 broth microdilution method
Escherichia coli [39] = assay: Antibacterial activity against ceftazidime-susceptible Escherichia coli by CLSI M7-A7 broth microdilution method
Enterobacter cloacae [40] = assay: Antibacterial activity against ceftazidime-susceptible Enterobacter cloacae assessed as susceptible isolates by CLSI M7-A7 broth microdilution method
Escherichia coli [41] = assay: Antibacterial activity against ceftazidime-susceptible Escherichia coli assessed as susceptible isolates by CLSI M7-A7 broth microdilution method
Klebsiella pneumoniae [42] = assay: Antibacterial activity against ceftazidime-nonsusceptible Klebsiella pneumoniae assessed as susceptible isolates by CLSI M7-A7 broth microdilution method
Escherichia coli [43] = assay: Antibacterial activity against ceftazidime-nonsusceptible Escherichia coli by CLSI M7-A7 broth microdilution method
Acinetobacter [44] = assay: Antibacterial activity against imipenem-susceptible Acinetobacter by CLSI M7-A7 broth microdilution method
Providencia sp. [45] = assay: Antibacterial activity against ceftazidime-susceptible Providencia sp. assessed as resistant isolates by CLSI M7-A7 broth microdilution method
Providencia sp. [46] = assay: Antibacterial activity against ceftazidime-susceptible Providencia sp. assessed as susceptible isolates by CLSI M7-A7 broth microdilution method
Klebsiella pneumoniae [47] = assay: Antibacterial activity against ceftazidime-susceptible Klebsiella pneumoniae by CLSI M7-A7 broth microdilution method
Serratia marcescens [48] = assay: Antibacterial activity against ceftazidime-susceptible Serratia marcescens by CLSI M7-A7 broth microdilution method
Enterobacteriaceae [49] = assay: Antibacterial activity against ceftazidime-susceptible Enterobacteriaceae assessed as susceptible isolates by CLSI M7-A7 broth microdilution method
Citrobacter freundii [50] = assay: Antibacterial activity against ceftazidime-nonsusceptible Citrobacter freundii assessed as susceptible isolates by CLSI M7-A7 broth microdilution method

Question: Which results are given for `CC1(C)S[C@@H]2[C@H](NC(=O)[C@H](N)c3ccccc3)C(=O)N2[C@H]1C(=O)O` [AMPICILLIN]?
Answer: MIC (Citrobacter freundii [1]): > 32 µg/mL; MIC50 (Citrobacter freundii [1]): > 32 µg/mL; MIC90 (Citrobacter freundii [1]): > 32 µg/mL; MIC50 (Morganella morganii [2]): > 32 µg/mL; MIC90 (Morganella morganii [2]): > 32 µg/mL; MIC50 (Proteus mirabilis [3]): 1 µg/mL (≈ 2.86 µM); MIC90 (Proteus mirabilis [3]): > 32 µg/mL; Activity (Serratia marcescens [4]): 3.4%; MIC (Acinetobacter [5]): > 32 µg/mL; MIC50 (Acinetobacter [5]): > 32 µg/mL; Activity (Enterobacteriaceae [6]): 100%; MIC (Enterobacteriaceae [7]): > 32 µg/mL; MIC50 (Enterobacteriaceae [7]): > 32 µg/mL; MIC90 (Enterobacteriaceae [7]): > 32 µg/mL; Activity (Enterobacter cloacae [8]): 66%; MIC50 (Citrobacter freundii [9]): 16 µg/mL (≈ 45.8 µM); MIC90 (Citrobacter freundii [9]): > 32 µg/mL; MIC (Enterobacter cloacae [10]): > 32 µg/mL; MIC50 (Enterobacter cloacae [10]): > 32 µg/mL; MIC90 (Enterobacter cloacae [10]): > 16 µg/mL; Activity (Proteus mirabilis [11]): 27.6%; Activity (Enterobacter cloacae [12]): 100%; MIC50 (Enterobacteriaceae [13]): 32 µg/mL (≈ 91.6 µM); MIC90 (Enterobacteriaceae [13]): > 32 µg/mL; Activity (Haemophilus influenzae [14]): 99%; Activity (Enterobacteriaceae [15]): 0%; Activity (Morganella morganii [16]): 8.8%; MIC50 (Enterobacter cloacae [17]): 32 µg/mL (≈ 91.6 µM); MIC90 (Enterobacter cloacae [17]): > 32 µg/mL; Activity (Escherichia coli [18]): 100%; Activity (Morganella morganii [19]): 85.3%; Activity (Haemophilus influenzae [20]): 2%; Activity (Escherichia coli [21]): 0%; Activity (Klebsiella pneumoniae [22]): 5.2%; Activity (Citrobacter freundii [23]): 36%; Activity (Serratia marcescens [24]): 83.1%; Activity (Klebsiella pneumoniae [25]): 80%; Activity (Enterobacter cloacae [26]): 0%; MIC50 (Haemophilus influenzae [27]): 32 µg/mL (≈ 91.6 µM); MIC90 (Haemophilus influenzae [27]): > 32 µg/mL; Activity (Escherichia coli [28]): 40.9%; MIC50 (Providencia sp. [29]): 32 µg/mL (≈ 91.6 µM); MIC90 (Providencia sp. [29]): > 32 µg/mL; Activity (Klebsiella pneumoniae [30]): 100%; Activity (Haemophilus influenzae [31]): 97%; Activity (Citrobacter freundii [32]): 42%; MIC (Haemophilus influenzae [33]): ≤ 0.25 µg/mL; MIC50 (Haemophilus influenzae [33]): ≤ 0.25 µg/mL; MIC90 (Haemophilus influenzae [33]): 0.5 µg/mL (≈ 1.43 µM); Activity (Haemophilus influenzae [34]): 1%; Activity (Enterobacteriaceae [35]): 57%; Activity (Citrobacter freundii [36]): 100%; Activity (Proteus mirabilis [37]): 72.4%; MIC (Klebsiella pneumoniae [38]): > 32 µg/mL; MIC50 (Klebsiella pneumoniae [38]): > 32 µg/mL; MIC90 (Klebsiella pneumoniae [38]): > 32 µg/mL; MIC50 (Escherichia coli [39]): 4 µg/mL (≈ 11.4 µM); MIC90 (Escherichia coli [39]): > 32 µg/mL; Activity (Enterobacter cloacae [40]): 20%; Activity (Escherichia coli [41]): 58.3%; Activity (Klebsiella pneumoniae [42]): 0%; MIC (Escherichia coli [43]): > 32 µg/mL; MIC50 (Escherichia coli [43]): > 32 µg/mL; MIC90 (Escherichia coli [43]): > 32 µg/mL; MIC50 (Acinetobacter [44]): 16 µg/mL (≈ 45.8 µM); MIC90 (Acinetobacter [44]): > 32 µg/mL; Activity (Providencia sp. [45]): 66.7%; Activity (Providencia sp. [46]): 22.2%; MIC50 (Klebsiella pneumoniae [47]): > 32 µg/mL; MIC90 (Klebsiella pneumoniae [47]): > 32 µg/mL; MIC50 (Serratia marcescens [48]): > 32 µg/mL; MIC90 (Serratia marcescens [48]): > 32 µg/mL; Activity (Enterobacteriaceae [49]): 35.2%; Activity (Citrobacter freundii [50]): 0%
